Measurements: patent publication US20170349879A1, “METHOD FOR CULTURING NORMAL CELLS AND ODONTOMA CELLS CONTAINED IN ORAL TISSUE” (CHIBA UNIVERSITY, priority 2014, published 2017)

Experiments:
salivary gland cells [1] = assay: Primary culture and subculture of salivary gland cells using a Rock inhibitor (cell morphology); format: cell-based, human; conditions: Rock inhibitor-containing medium (10 μM), vs standard medium; FIG. 1
Experimental: (i) Patient-derived salivary gland cells for use as a source material were taken in a required amount from the labial glands of each patient. (ii) The cells were washed three times with phosphate-buffered physiological saline (PBS) (supplemented with 10 units/ml of penicillin and 100 μg/ml of streptomycin: Sigma-Aldrich). (iii) The cells were cut into small pieces with sterilized iris scissors and a surgical knife (No. 11). (iv) After addition of trypsin (TrypLE Select Enzyme, Gibco, Code No. A12177-01), the cells were shaken at 37° C. for 30 minutes. (v) The cells were mixed with Dulbecco's modified Eagle medium (DMEM: Sigma-Aldrich) (supplemented with 10% fetal bovine serum: Nichirei Bioscience Inc., Japan, 10 units/ml of penicillin and 100 μg/ml of streptomycin), and centrifugation (at 1000 rpm for 5 minutes) was repeated three times. (vi) The cells were mixed with DMEM (supplemented with 10% fetal bovine serum, 10 units/ml of penicillin, 100 μg/ml of streptomycin, 10 μM of the Rock kinase inhibitor and 0.3 μM of L-ascorbic acid 2-phosphate: Sigma-Aldrich) (DMEM+) and then seeded into collagen type 1-coated cell culture dishes (IWAKI). (vii) The cells were washed with PBS once every three days to replace the above medium. (i) The cultured cells were subcultured at 80% confluency. The cells were washed three times with phosphate-buffered physiological saline. […]

salivary gland cells [2] = assay: Analysis of cytomorphological changes by immunocytological fluorescent staining of the cytoskeleton (F-actin); format: cell-based, human; conditions: salivary gland cells in Rock inhibitor-containing medium vs inhibitor-free medium; FIG. 4
Experimental: In this section, cytomorphological changes caused by the presence or absence of a Rock inhibitor were analyzed by immunocytological fluorescent staining of the cytoskeleton. Analytes were treated by the same experimental procedures as shown in (2.2) above. As an antibody, Acti-stain 670 fluorescent Phallodin (F-actin) (Cytoskeleton) was reacted at room temperature for 1 hour.

B6C3F1/Crlj mice = assay: Toxicity in mice administered intraperitoneally with a Rock inhibitor; format: in vivo; conditions: 10 mg/kg/day intraperitoneal, once a day for 14 days
Experimental: 4.3 Histopathological Analysis of Organ Toxicity in Mice Administered Intraperitoneally with a Rock Inhibitor Animal used: B6C3F1/Crlj mice (CLEA Japan, Inc., Japan) n=12 for each group (male: 6, female: 6), n=4 for the control group (male: 2, female: 2) Drug: Y-27632 Dose: 10 mg/kg/day (0.25 mg/day for 25 g body weight) Y-27632 was dissolved in PBS and intraperitoneally administered. The control group was administered with an equal volume of PBS. Administration period: administered once a day for successive 14 days. Half of the mice in each group were monitored for follow-up purposes for 14 days after administration. (i) Groups receiving a Rock inhibitor (RI+): n=12 (male: 6, female: 6) A. Group subjected to blood collection and autopsy at the time of the completion of administration (at 14 days after the initiation of administration). n=6 (male: 3, female: 3) B. Group subjected to blood collection and autopsy at the time of the completion of administration (at 28 days after the initiation of administration). n=6 (male: 3, female: 3) The mice were visually observed for their general condition once a day. The mice were measured daily for their body weight and feed/water intake. Hematological tests were performed on each mouse before administration and after administration (on the 14th day). * In each group, 3 male and 3 female mice were subjected to blood collection and autopsy on the 14th day of administration. […] These mice were subjected to blood examination and autopsy on the 28th day after the initiation of administration. Blood counting: red blood cell count, white blood cell count, platelet count, hematocrit value, red blood cell fraction. Biochemical parameters: TP, ALB, CRE, Na, K, GOT, GPT, T-CHO, Glu On the […], 3 male and 3 female mice from each group were subjected to autopsy. The remaining 3 male and 3 female mice were subjected to autopsy on the 28th day after being monitored for follow-up purposes. […]

[3] = tested on: proliferating cell nuclear antigen (PCNA); assay: Western blotting of PCNA (proliferation) in salivary gland cells; format: cell-based, human; conditions: salivary gland cells in Rock inhibitor-containing medium; relative to α-tubulin; FIG. 6A
Experimental: Primary cultured salivary gland cells were cultured in a medium containing a Rock inhibitor and analyzed for their proliferation by Western blotting of proliferating cell nuclear antigen (PCNA: Santa Cruz) and for their apoptosis by Western blotting of caspase-3 (CST). For analysis of their immortalization, the expression of telomerase reverse transcriptase (TERT) was analyzed by quantitative RT-PCR assay.
The protein levels of PCNA and caspase-3 were measured by Western blotting. In addition, α-tubulin was used as an endogenous control.
(i) A protein extract was electrophoresed on a 4% to 12% polyacrylamide gel (Invitrogen).
(ii) The proteins were transferred onto a nitrocellulose membrane (Invitrogen).
(iii) The membrane was washed with Tris-buffered saline containing 0.1% Tween-20 (WaKo) (TBST), and then blocked with Blocking One (Nacalai Tesque, Inc., Japan) for 30 minutes. […]
(vi) The membrane was reacted at room temperature for 1 hour with horseradish peroxidase (HRP)-conjugated secondary antibody (Promega) and then treated with Super Signal West Pico Chemiluminescent substrate (Thermo) to develop signals for visualization purposes. The intensity of signals was quantified with a CS analyzer (ATTO) and expressed as a relative value in comparison with the protein level of α-tubulin measured as a control.

SMILES: CC(N)[C@H]1CC[C@H](C(=O)Nc2ccncc2)CC1 (stereo partly drawn) [Rock inhibitor, (R)-(+)-trans-N-(4-pyridyl)-4-(1-aminoethyl)-cyclohexanecarboxamide]
- cell morphology of salivary gland cells on repeated subculture (salivary gland cells [1]): maintain their cell morphology arranged in a cobblestone pattern even when repeatedly subcultured
- cytoskeleton (F-actin) morphology (salivary gland cells [2]): honeycomb-like skeleton
- hematological tests (B6C3F1/Crlj mice; FIG. 7): No abnormal findings were observed
- time course of body weight changes (B6C3F1/Crlj mice; FIG. 8): No abnormal findings were observed
- histopathological examination of organs (B6C3F1/Crlj mice; HE staining, FIG. 9): No abnormal findings were observed
- PCNA expression [3]: no difference was observed
